Patent US8637038B2, “Methods for inhibiting allograft rejection” (Rigel Pharmaceuticals, Inc., priority 2011, dated 2014)
Entries after “also recorded” stand apart in the source; their conditions may differ. Read-outs that look alike come from different tables or passages of the source.

What was measured:
JAK1/Tyk2 = test: IFN-γ T cell phospho-STAT1; type: cell-based; details: Homo sapiens
Procedure: (§1) The activity of Compound III and Compound I was assessed in a panel of cell-based assays. Compound III and Compound I are selective inhibitors of JAK1/3-dependent signaling. Data for a non-selective JAK inhibitor (Compound IV) is shown for reference. Mixed lymphocyte reactions (MLRs) were performed by incubating freshly prepared naive human peripheral blood lymphocytes from one donor with CD80+/CD86+ mature Dendritic Cells derived from a different donor for 5 days. The percentage of CD3+/CD71+ (anti-CD3-APC, Clone HIT3a, anti-CD 71-FITC, Clone M-A712; BD Biosciences, San Jose, Calif.) proliferating cells was assessed by fluorescence-activated cell sorting (FACS; BD Bioscience). Interleukin-2 (IL-2)-dependent human primary T cell proliferation was assessed using CellTiter-Glo® Luminescent Cell Viability Assay (Promega, Madison, Wis.). STAT phosphorylation induced by different cytokines in human primary T cells was measured by intracellular FACS analysis (anti-pY694-STAT5 AlexaFluor488, anti-pY701-STAT1 AlexaFluor488, and anti-pY693-STAT4 AlexaFluor488; BD Biosciences). […] Interferon-γ (IFN-γ) signaling was assessed in the U937 monocytic cell line by measuring ICAM-1 surface expression by FACS (ICAM-1-APC, BD Bioscience).

Syk = test: IgE CHMC tryptase release; type: cell-based; details: Homo sapiens, read-out: IgE CHMC tryptase EC50
Procedure: The erythropoietin (EPO)-dependent survival of cultured human erythroid progenitor cells (CHEPs) was determined using CellTiter-Glo® Luminescent Cell Viability Assay (Promega). Human primary T cell activation was assessed by measuring IL-2 production by ELISA (R&D Systems, Minneapolis, Minn., USA) following plate-bound anti-CD3 and anti-CD28 stimulation (Anti-Human CD3; BD Biosciences; Anti-Human CD28; Immunotech; Prague, Czech Republic). The enzymatic activity of tryptase released by human cultured mast cells (CHMCs) upon stimulation with IgE was quantified by cleavage of the synthetic fluorescent peptide substrate Z-Ala-Lys-Arg-7-amino-4-methylcoumarin (MP Biomedicals, Solon, Ohio, USA) in tryptase buffer. B-cell receptor-dependent Erk phosphorylation was measured in Ramos cells by intracellular FACS (anti-pT202/pY204-ERK1/2-AlexaFluor488; BD Biosciences). Cell proliferation assays were performed using A549 epithelial cells and H1299 lung carcinoma cells using nuclear staining to measure cell numbers (4′6-diamidino-2-phenylindole, dihydrochloride (DAPI; Invitrogen, Darmstadt, Germany)).

EGFR = target: T1, EGFR (Homo sapiens, UniProt P00533); test: EGF HeLa phospho-EGFR; type: cell-based
T1 construct: Growth factor-dependent protein phosphorylation was detected in HeLa cells; endogenous in cells; host or cells: HeLa
Procedure: Growth factor-dependent protein phosphorylation was detected in HeLa cells by staining permeabilized cells with phospho-specific antibodies and quantified by chemiluminescence (Luminator, Wallac Multilabel Counter; Perkin Elmer). Akt phosphorylation was measured following insulin stimulation and EGFR phosphorylation was measured following EGF stimulation (Phospho-AKT, Cell signaling technology, Danvers, Mass.; 1 μM Insulin, Millipore, Billerica, Mass.; Phospho-EGFR, tyr1173, clone 53A3, Cell Signaling Technology; 200 ng/ml recombinant human EGF, PeproTech, Hamburg, Germany). Human umbilical vein endothelial cells (HUVECs) were stimulated with VEGF and VEGFR2 phosphorylation was assessed by ELISA (100 ng/ml VEGF165, R&D Systems; Rabbit anti-phospho-VEGFR2 mAb, Cell Signaling Technology).

JAK2 = test: GM-CSF whole blood granulocytes phospho-STAT5; type: cell-based; details: read-out: GM-CSF whole blood granulocytes phospho-STAT5 EC50
Procedure: as §1

[1] = test system: Lew recipients of heterotopic BN heart transplants; test: Five-day heart allograft study: intragraft cytokines (Quantibody arrays); type: in vivo, rat; details: HD groups; for intragraft IFN-γ release / intragraft IL-10 release compared to no medication group: five days; for intragraft IFN-γ release / intragraft IL-10 release compared to no medication group / intragraft IL-10 release compared to Tac HD treatment: p<0.05
Procedure: Compound I and Compound III were provided by Rigel (South San Francisco, Calif.) and Tacrolimus was provided by Astellas (Munich, Germany). All drugs were administrated orally each in two different concentrations: Compound I LD (15 mg/kg BID; n=6) and HD (60 mg/kg BID; n=6); […] Administration of all drugs was performed every day at the same time points. Tacrolimus was applied only once a day (QD) every 24 hours. During administration of Compound I (BID) and Compound III (BID) a 12 hour pause was kept in between each drug application. Lew recipients of heterotopic BN heart transplants were randomly assigned to their group. […] An untreated syngeneic transplant group Lew-Lew was generated as control. […] Hearts were equally homogenized in 400 μl RIPA buffer (Sigma-Aldrich, St. Louis, Mo.). The protein content within the supernatant was quantified using the colorimetric BCA protein assay (Thermo Fisher Scientific, Rockford, Ill.) at 562 nm wavelength, according to the manufacturer's protocol. A total of 300 μg protein per Quantibody® array glass chip was used to quantitatively measure the intracellular cytokine content by ELISA in quadruplicates (Human cytokine array 1, Raybiotech). All values were normalized to the standard curve. Glass chip analysis was performed by Raybiotech.

T1 sequence (P00533 25-1210): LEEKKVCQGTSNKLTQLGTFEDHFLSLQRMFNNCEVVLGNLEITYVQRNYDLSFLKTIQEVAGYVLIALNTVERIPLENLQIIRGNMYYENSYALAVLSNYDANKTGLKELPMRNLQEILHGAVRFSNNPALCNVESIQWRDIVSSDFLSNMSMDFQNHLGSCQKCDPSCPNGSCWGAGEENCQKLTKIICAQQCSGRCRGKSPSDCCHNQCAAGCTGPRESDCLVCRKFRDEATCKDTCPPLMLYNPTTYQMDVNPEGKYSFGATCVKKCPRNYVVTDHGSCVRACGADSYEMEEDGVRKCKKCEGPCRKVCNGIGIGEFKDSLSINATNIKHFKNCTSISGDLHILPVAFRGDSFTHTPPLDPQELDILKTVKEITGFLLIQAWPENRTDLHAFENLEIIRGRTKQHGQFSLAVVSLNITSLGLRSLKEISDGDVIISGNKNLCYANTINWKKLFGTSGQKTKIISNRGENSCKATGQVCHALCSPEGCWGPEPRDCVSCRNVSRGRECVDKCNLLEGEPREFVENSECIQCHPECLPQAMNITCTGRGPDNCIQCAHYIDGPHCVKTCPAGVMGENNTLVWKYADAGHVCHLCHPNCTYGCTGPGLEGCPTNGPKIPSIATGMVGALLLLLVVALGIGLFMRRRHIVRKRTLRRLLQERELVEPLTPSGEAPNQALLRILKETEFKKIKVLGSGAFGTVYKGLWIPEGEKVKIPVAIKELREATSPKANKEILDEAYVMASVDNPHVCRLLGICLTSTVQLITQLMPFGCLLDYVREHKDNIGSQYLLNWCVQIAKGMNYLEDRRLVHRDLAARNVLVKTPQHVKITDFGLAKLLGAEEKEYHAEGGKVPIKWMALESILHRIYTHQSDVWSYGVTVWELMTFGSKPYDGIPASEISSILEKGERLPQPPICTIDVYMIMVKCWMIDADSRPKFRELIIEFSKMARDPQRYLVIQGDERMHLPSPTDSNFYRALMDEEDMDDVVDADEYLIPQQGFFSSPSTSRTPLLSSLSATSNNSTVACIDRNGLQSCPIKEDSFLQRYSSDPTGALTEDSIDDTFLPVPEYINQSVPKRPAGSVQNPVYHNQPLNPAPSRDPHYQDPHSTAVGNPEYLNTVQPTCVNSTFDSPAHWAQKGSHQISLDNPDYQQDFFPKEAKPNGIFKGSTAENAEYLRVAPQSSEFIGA

Compound | EC50 (JAK1/Tyk2; upstream kinases JAK1/Tyk2, read-out: IFN-γ T cell phospho-STAT1 EC50) | EC50 (Syk; upstream kinase Syk) | EGF HeLa phospho-EGFR EC50 (EGFR) | EC50 (JAK2; whole blood, JAK2) | intragraft MCP-1 release compared to Tac HD treatment [1] | intragraft IFN-γ release [1] | intragraft IL-10 release compared to no medication group [1] | intragraft IL-10 release compared to Tac HD treatment [1] | EC50 (JAK1/Tyk2; read-out: IFN-γ T cell phospho-STAT1 EC50) | EC50 (Syk) | EC50 (JAK2)
COc1cc(Nc2ncc(C)c(Nc3ccc4oc(=O)[nH]c4c3)n2)cc(C)c1F [Compound I, 5-(2-(4-fluoro-3-methoxy-5-methylphenylamino)-5-methylpyrimidin-4-ylamino)benzo[d]oxazol-2(3H)-one] | 0.009 ± 0.007 µM | 0.457 ± 0.263 µM | Inactive | 32.7 ± 9.51 µM | lower mean values | significantly less; also recorded: significant reduction | significantly reduced; also recorded: significant reduction | significantly less IL-10 release |  |  | 
COc1cc(Nc2ncc(C)c(Nc3ccc4oc(=O)[nH]c4c3)n2)cc(C)c1C [Compound III, 5-(2-(3-methoxy-4,5-dimethylphenylamino)-5-methylpyrimidin-4-ylamino)benzol[d]oxazol-2-(3H)-one] |  |  | Inactive |  | lower mean values | significantly less; also recorded: significant reduction | significantly reduced; also recorded: significant reduction | significantly less IL-10 release | 0.007 ± 0.001 µM | 0.38 ± 0.15 µM | > 50 µM
